Reference: patent US8067456B2 (AEterna Zentaris GmbH, priority 2004, dated 2011)

How the values were obtained:
castrated rats = assay: LH concentration suppression in the plasma of castrated rats; format: in vivo, rat; conditions: 19 mg/kg oral in Solutol HS15/1,2-propane-diol (3:1)
Experimental: The LH concentration in the plasma of castrated rats was measured using the rat luteinizing hormone (rLH) enzyme immunoassay (EIA) system ELISA (RPN 2562) from Amersham Pharmacia Biotech or of LH RIA-AH R002 rats; from Biocode-Hycel, Liege, Belgium. All other chemicals used were from commercial sources in the highest purity available.
10 days before the start of the test, male Sprague Dawley rats (Harlan Winkelmann, Germany) weighing 190-220 g were anesthetized with ether and castrated and provided with a silicone catheter for permanent blood sampling.
At the start of the test, before administration of the substance, blood samples were taken and the LH level determined. The substance was then administered orally in the desired concentration. The number of animals used in each group was 8. At the stated times, further blood samples were taken. The blood was collected in heparinized sample tubes on ice, and the plasma was obtained by centrifugation at 3000 g for 10 minutes. The plasma samples were stored at −20° C. until the LH concentration was measured by ELISA or RIA. The LH concentration was determined by an ELISA or RIA in duplicate determination in accordance with the manufacturer's (Amersham Pharmacia Biotech; Biocode-Hycel) instructions.
All the other data points for each individual animal were calculated as relative concentration compared with the LH concentration before treatment.

LHRH receptor [1] = biological target: T1, LHRH receptor (Rattus norvegicus, UniProt P30969); assay: LHRH receptor-ligand binding assay (membrane preparations from rat pituitary cells); conditions: competition with 0.05 nM [125I][D-Trp6]-LHRH, 90 min, 4° C., rat pituitary membranes
T1 construct: rat pituitary cells which naturally strongly express the LHRH receptor; from tissue; host or cells: rat pituitary cells (membrane preparation)
T1 sequence (P30969 1-327): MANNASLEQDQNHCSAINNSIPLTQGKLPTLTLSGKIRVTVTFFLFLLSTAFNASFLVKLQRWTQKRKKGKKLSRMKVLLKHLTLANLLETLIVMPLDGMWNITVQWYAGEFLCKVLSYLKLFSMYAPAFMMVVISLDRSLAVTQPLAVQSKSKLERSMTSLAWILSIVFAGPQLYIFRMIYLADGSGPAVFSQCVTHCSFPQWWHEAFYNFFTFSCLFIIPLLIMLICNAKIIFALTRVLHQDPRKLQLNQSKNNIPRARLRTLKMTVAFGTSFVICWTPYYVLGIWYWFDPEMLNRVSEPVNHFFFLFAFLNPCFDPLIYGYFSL
Experimental: Heterologous competition experiments were carried out using membrane preparations from rat pituitary cells which naturally strongly express the LHRH receptor. The ligand used in this case was [^125I][D-Trp^6]-LHRH in a concentration of 0.05 nM. Unlabeled [D-Trp^6]-LHRH was used in a concentration of 1 μM, or the test substance was used in the desired concentration, for competition. After an incubation time of 90 minutes at 4° C., the bound ligand was measured by scintillation (Halmos et al., Proc. Natl. Acad. Sci. USA, 1996, 93, 2398).
The result obtained was the percentage proportion of bound ligand in the presence of the competitor related to the specifically bound proportion of the control (see result for selected compounds in Table 3). EC50 values were calculated by nonlinear regression analysis of the competition plots.

[2] = Metabolic stability in rat liver microsomes; format: in vitro ADME; conditions: 37° C., NADPH
Experimental: (§1) The metabolic stability in relation to liver microsomes (species human, rat) was determined in accordance with the following description: the substances were incubated at a test concentration of 1 […] An HPLC MS/MS method was subsequently used to quantify the unmetabolized amount of starting compound relative to 100%.

[3] = Metabolic stability in human liver microsomes; format: in vitro ADME; conditions: 37° C., NADPH
Experimental: as §1

NK2 (h) = biological target: T2, NK2 (h) (Homo sapiens, UniProt P21452); assay: NK2 receptor-ligand binding assay (Cerep); conditions: for nH: Hill coefficient of competition plot; for IC50 / Ki: ligand [Nle10]-NKA(4-10)
T2 construct: Cerep Assay 826-2h
T2 sequence (P21452 1-398): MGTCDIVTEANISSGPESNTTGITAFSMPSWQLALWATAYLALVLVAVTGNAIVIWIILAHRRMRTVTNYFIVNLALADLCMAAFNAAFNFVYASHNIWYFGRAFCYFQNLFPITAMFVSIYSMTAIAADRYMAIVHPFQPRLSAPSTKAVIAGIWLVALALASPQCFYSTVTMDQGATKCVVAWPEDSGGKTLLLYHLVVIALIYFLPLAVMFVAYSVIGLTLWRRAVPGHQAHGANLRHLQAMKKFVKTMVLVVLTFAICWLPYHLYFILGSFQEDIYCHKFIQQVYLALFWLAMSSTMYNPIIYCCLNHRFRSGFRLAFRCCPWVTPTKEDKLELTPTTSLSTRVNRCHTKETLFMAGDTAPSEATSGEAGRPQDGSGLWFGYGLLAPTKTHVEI
Experimental: (§2) Receptor affinities (IC50 values) of the compounds of the invention of the general formulae (I, Ia and Ib) were measured as described by E. Heuillet et al., J. Neurochem., 60: 868-876 (1993) and D. Aharony et al. Mol. Pharmacol, 44: 356-363 (1993) commercially by Cerep (Assay 826-1h on page 67 and Assay 826-2h on page 68 of the 2005 catalogue).
(§3) FIGS. 8-11 show competition plots measured in the NK1 and NK2 receptor-ligand binding assays with [Sar^9, Met(O2)^11]-SP for NK1 and [Nle^10]-NKA(4-10) for NK2, and the selected substances (68 and 76).

NK1 (h) = biological target: T3, NK1 (h) (Homo sapiens, UniProt P25103); assay: NK1 receptor-ligand binding assay (Cerep); conditions: for nH: Hill coefficient of competition plot; for IC50 / Ki: ligand [Sar9, Met(O2)11]-SP
T3 construct: Cerep Assay 826-1h
T3 sequence (P25103 whole entry): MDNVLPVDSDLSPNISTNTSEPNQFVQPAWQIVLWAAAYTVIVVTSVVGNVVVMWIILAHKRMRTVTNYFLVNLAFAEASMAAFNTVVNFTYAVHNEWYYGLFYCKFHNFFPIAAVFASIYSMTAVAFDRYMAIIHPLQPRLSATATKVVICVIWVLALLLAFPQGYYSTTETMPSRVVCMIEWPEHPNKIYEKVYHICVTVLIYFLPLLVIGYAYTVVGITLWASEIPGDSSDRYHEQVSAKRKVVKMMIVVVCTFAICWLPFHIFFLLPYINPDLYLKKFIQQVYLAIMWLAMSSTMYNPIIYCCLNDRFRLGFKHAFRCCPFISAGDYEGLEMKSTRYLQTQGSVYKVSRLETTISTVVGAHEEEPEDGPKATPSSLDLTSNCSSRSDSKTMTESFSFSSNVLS
Experimental: as §2, §3

[4] = in vivo; cited from earlier work
LHRH receptor [5] = biological target: LHRH receptor (Homo sapiens, UniProt P30968); conditions: prior art, N. Cho et al. J. Med. Chem. 41, 4190-4195 (1998); cited from earlier work
Chain of LHRH receptor (Homo sapiens, UniProt P30968) (P30968 whole entry): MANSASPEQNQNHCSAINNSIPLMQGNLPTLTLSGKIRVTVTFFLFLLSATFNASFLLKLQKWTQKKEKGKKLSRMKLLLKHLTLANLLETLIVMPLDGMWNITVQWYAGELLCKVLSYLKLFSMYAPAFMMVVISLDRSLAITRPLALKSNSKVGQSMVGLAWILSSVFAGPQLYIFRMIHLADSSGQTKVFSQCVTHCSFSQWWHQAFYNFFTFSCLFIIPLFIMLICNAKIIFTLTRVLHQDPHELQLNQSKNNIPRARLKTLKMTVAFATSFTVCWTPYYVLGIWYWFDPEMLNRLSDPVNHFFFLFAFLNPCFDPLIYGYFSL

[6] = Saturation solubility in water; format: physicochemical; conditions: water, thermodynamic from solid; maximum of 1% DMSO added, HPLC UV
Experimental: The saturation solubility in water was determined in accordance with the following description: to initiate dissolving of the substances and to improve the wetting of the samples, a maximum of 1% DMSO was added. The content was checked by using an HPLC UV method.

EC50 (LHRH receptor [1]) [nM] | recovery at 10 μM [2] [%] | recovery at 10 μM [3] [%] | nH (NK2 (h)) | IC50 (NK2 (h)) [nM] | Ki (NK2 (h)) [nM] | nH (NK1 (h)) | IC50 (NK1 (h)) [nM] | Ki (NK1 (h)) [nM] | SMILES | also measured
1 | 80 | 75 | 3.8 | 1600 | 850 | 2.0 | 1400 | 640 | CCC(C)[C@H](NC(=O)Cc1ccccc1F)C(=O)N[C@]1(C(=O)N[C@H](C(N)=S)C(C)CC)CCc2[nH]c3c(Cl)cc(F)cc3c2C1 (stereo partly drawn) [Compound 68, (R)-8-chloro-6-fluoro-3-{(S)-2-[2-(2-fluorophenyl)acetylamino]-3-methylpentanoylamino}-2,3,4,9-tetrahydro-1H-carbazole-3-carboxylic acid ((S)-2-methyl-1-thiocarbamoylbutyl)amide] | Relative LH concentration (%) (averages ± SEM compared with the concentration before treatment) (castrated rats; time 0 h): 95.0 ± 9.3%; Relative LH concentration (%) (averages ± SEM compared with the concentration before treatment) (castrated rats; time +4 h): 17.4 ± 3.3%; Relative LH concentration (%) (averages ± SEM compared with the concentration before treatment) (castrated rats; time +6 h): 16.0 ± 1.5%; Relative LH concentration (%) (averages ± SEM compared with the concentration before treatment) (castrated rats; time +8 h): 12.9 ± 1.0%; Relative LH concentration (%) (averages ± SEM compared with the concentration before treatment) (castrated rats; time +12 h): 16.0 ± 2.6%; Relative LH concentration (%) (averages ± SEM compared with the concentration before treatment) (castrated rats; time +24 h): 65.7 ± 10.8%; Relative LH concentration (%) (averages ± SEM compared with the concentration before treatment) (castrated rats; time +30 h): 78.1 ± 7.7%; Relative LH concentration (%) (averages ± SEM compared with the concentration before treatment) (castrated rats; time −24 h (before treatment)): 105.4 ± 12.7%
0.27 | 69 | 84 | 2.3 | 1500 | 810 | 2.3 | 1900 | 840 | CCC(C)[C@H](NC(=O)Cc1ccccc1F)C(=O)N[C@]1(C(=O)N[C@H](C(N)=S)C(C)CC)CCc2[nH]c3c(C(F)(F)F)cccc3c2C1 (stereo partly drawn) [Compound 76, (R)-3-{(S)-2-[2-(2-fluorophenyl)acetylamino]-3-methylpentanoylamino}-8-trifluoromethyl-2,3,4,9-tetrahydro-1H-carbazole-3-carboxylic acid ((S)-2-methyl-1-thiocarbamoylbutyl)amide] | –
– | – | – | – | – | – | – | – | – | CC(C)OC(=O)c1cn(Cc2c(F)cccc2F)c2sc(-c3ccc(NC(=O)C(C)C)cc3)c(CN(C)Cc3ccccc3)c2c1=O [Compound T-98475] | bioavailability [4]: low; receptor affinity (LHRH receptor [5]): high
– | – | – | – | – | – | – | – | – | CCC(C)[C@H](NC(=O)[C@@]1(NC(=O)[C@@H](NC(=O)OCc2ccccc2)C(C)CC)CCc2[nH]c3c(Cl)cc(Cl)cc3c2C1)C(N)=O (stereo partly drawn) [Example 295 from WO 03/051837 A2, Benzyl {(S)-1-[(R)-3-((S)-1-carbamoyl-2-methylbutylcarbamoyl)-6,8-dichloro-2,3,4,9-tetrahydro-1H-carbazol-3-ylcarbamoyl]-2-methylbutyl]carbamate, reference compound] | solubility [6]: < 0.05 µg/mL; recovery at 1 μM ([2]; 1 μM): 0%; recovery at 1 μM ([3]; 1 μM): 0%
